The supplement of paper PMC8967900

What was measured:
Test in all cases: selective drug sensitivity score (sDSS, relative to normal bone marrow) (sDSS (score)); higher = more potent and effective on the cell line relative to normal bone marrow cells
Conditions in all cases: 72 h
MOLT-4 = tested on: MOLT-4
ALL-SIL = tested on: ALL-SIL
SEM cells = tested on: SEM cells
RCH-ACV = tested on: RCH-ACV
NALL-1 = tested on: NALL-1
DND-41 = tested on: DND-41
KASUMI-2 = tested on: KASUMI-2
PF-382 = tested on: PF-382
COG-LL-402h = tested on: COG-LL-402h
KARPAS-45 = tested on: KARPAS-45
MHH-CALL-2 = tested on: MHH-CALL-2
CCRF-HSB2 = tested on: CCRF-HSB2
JURKAT = tested on: JURKAT
RPMI-8402 = tested on: RPMI-8402
P30-OHKUBO = tested on: P30-OHKUBO
HPB-ALL = tested on: HPB-ALL
KASUMI-10 = tested on: KASUMI-10
MN-60 = tested on: MN-60
SUP-B15 = tested on: SUP-B15
LC4-1 = tested on: LC4-1
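Note: ALL cell lines in 384-well plates, five doses spanning 10,000-fold, each plate scaled between vehicle and 100 µmol/L benzalkonium chloride controls, sDSS an adapted area-under-curve metric.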

CC(C)C[C@H](NC(=O)[C@H](CCc1ccccc1)NC(=O)CN1CCOCC1)C(=O)N[C@@H](Cc1ccccc1)C(=O)N[C@@H](CC(C)C)C(=O)[C@@]1(C)CO1 [Carfilzomib] (top concentration 1000 nM)
selective drug sensitivity score (MOLT-4): 0.86
selective drug sensitivity score (ALL-SIL): 1.66
selective drug sensitivity score (SEM cells): 8.56
selective drug sensitivity score (RCH-ACV): 0.86
selective drug sensitivity score (NALL-1): 0.56
selective drug sensitivity score (DND-41): 5.36
selective drug sensitivity score (KASUMI-2): -0.04
selective drug sensitivity score (PF-382): 1.86
selective drug sensitivity score (COG-LL-402h): 2.86
selective drug sensitivity score (KARPAS-45): 0.66
selective drug sensitivity score (MHH-CALL-2): 1.56
selective drug sensitivity score (CCRF-HSB2): 3.86
selective drug sensitivity score (JURKAT): -4.04
selective drug sensitivity score (RPMI-8402): -2.74
selective drug sensitivity score (P30-OHKUBO): 3.46
selective drug sensitivity score (HPB-ALL): 3.96
selective drug sensitivity score (KASUMI-10): 0.36
selective drug sensitivity score (MN-60): -7.34
selective drug sensitivity score (SUP-B15): 4.56
selective drug sensitivity score (LC4-1): 2.36

O=C(c1ccc(F)c(F)c1Nc1ccc(I)cc1F)N1CC(O)([C@@H]2CCCCN2)C1 [Cobimetinib] (top concentration 1000 nM)
selective drug sensitivity score (MOLT-4): -3.68
selective drug sensitivity score (ALL-SIL): -2.98
selective drug sensitivity score (SEM cells): -2.48
selective drug sensitivity score (RCH-ACV): -3.68
selective drug sensitivity score (NALL-1): -1.88
selective drug sensitivity score (DND-41): 2.62
selective drug sensitivity score (KASUMI-2): 4.22
selective drug sensitivity score (PF-382): -3.28
selective drug sensitivity score (COG-LL-402h): -0.98
selective drug sensitivity score (KARPAS-45): -3.68
selective drug sensitivity score (MHH-CALL-2): 0.42
selective drug sensitivity score (CCRF-HSB2): -0.28
selective drug sensitivity score (JURKAT): -3.68
selective drug sensitivity score (RPMI-8402): -3.68
selective drug sensitivity score (P30-OHKUBO): -3.68
selective drug sensitivity score (HPB-ALL): -3.68
selective drug sensitivity score (KASUMI-10): -3.68
selective drug sensitivity score (MN-60): -3.68
selective drug sensitivity score (SUP-B15): 6.62
selective drug sensitivity score (LC4-1): -0.68

COc1c(OCCCN2CCOCC2)ccc2c1N=C(NC(=O)c1cnc(N)nc1)N1CCN=C21 [Copanlisib] (top concentration 1000 nM)
selective drug sensitivity score (MOLT-4): 4.48
selective drug sensitivity score (ALL-SIL): 0.38
selective drug sensitivity score (SEM cells): 4.18
selective drug sensitivity score (RCH-ACV): 22.2
selective drug sensitivity score (NALL-1): -0.62
selective drug sensitivity score (DND-41): -2.72
selective drug sensitivity score (KASUMI-2): 4.18
selective drug sensitivity score (PF-382): 2.58
selective drug sensitivity score (COG-LL-402h): 8.88
selective drug sensitivity score (KARPAS-45): 3.38
selective drug sensitivity score (MHH-CALL-2): 6.18
selective drug sensitivity score (CCRF-HSB2): 1.98
selective drug sensitivity score (JURKAT): -3.62
selective drug sensitivity score (RPMI-8402): 2.58
selective drug sensitivity score (P30-OHKUBO): 10.1
selective drug sensitivity score (HPB-ALL): 0.48
selective drug sensitivity score (KASUMI-10): -1.32
selective drug sensitivity score (MN-60): 0.48
selective drug sensitivity score (SUP-B15): -2.12
selective drug sensitivity score (LC4-1): -4.22

Cn1c(=O)n(-c2ccc(C(C)(C)C#N)cc2)c2c3cc(-c4cnc5ccccc5c4)ccc3ncc21 [Dactolisib] (top concentration 1000 nM)
selective drug sensitivity score (MOLT-4): 5.76
selective drug sensitivity score (ALL-SIL): 4.96
selective drug sensitivity score (SEM cells): 10.4
selective drug sensitivity score (RCH-ACV): 21.3
selective drug sensitivity score (NALL-1): 3.46
selective drug sensitivity score (DND-41): 5.66
selective drug sensitivity score (KASUMI-2): 9.06
selective drug sensitivity score (PF-382): 9.36
selective drug sensitivity score (COG-LL-402h): 5.36
selective drug sensitivity score (KARPAS-45): 6.56
selective drug sensitivity score (MHH-CALL-2): 9.36
selective drug sensitivity score (CCRF-HSB2): 11.1
selective drug sensitivity score (JURKAT): 7.26
selective drug sensitivity score (RPMI-8402): 7.76
selective drug sensitivity score (P30-OHKUBO): 14.8
selective drug sensitivity score (HPB-ALL): 1.36
selective drug sensitivity score (KASUMI-10): -1.04
selective drug sensitivity score (MN-60): 8.66
selective drug sensitivity score (SUP-B15): 10.3
selective drug sensitivity score (LC4-1): 5.16

O=C(/C=C/c1cccnc1)NCCCCC1CCN(C(=O)c2ccccc2)CC1 [Daporinad] (top concentration 1000 nM)
selective drug sensitivity score (MOLT-4): 5.86
selective drug sensitivity score (ALL-SIL): 9.46
selective drug sensitivity score (SEM cells): 17.2
selective drug sensitivity score (RCH-ACV): 19.5
selective drug sensitivity score (NALL-1): 15.9
selective drug sensitivity score (DND-41): 19.9
selective drug sensitivity score (KASUMI-2): 8.66
selective drug sensitivity score (PF-382): 18.4
selective drug sensitivity score (COG-LL-402h): 16.4
selective drug sensitivity score (KARPAS-45): 18.4
selective drug sensitivity score (MHH-CALL-2): 11.4
selective drug sensitivity score (CCRF-HSB2): 6.76
selective drug sensitivity score (JURKAT): 8.76
selective drug sensitivity score (RPMI-8402): 16.3
selective drug sensitivity score (P30-OHKUBO): 16
selective drug sensitivity score (HPB-ALL): 7.96
selective drug sensitivity score (KASUMI-10): 12.1
selective drug sensitivity score (MN-60): 6.66
selective drug sensitivity score (SUP-B15): 19.4
selective drug sensitivity score (LC4-1): 14.2

CC(=O)N(O)CCCCCNC(=O)CCC(=O)N(O)CCCCCNC(=O)CCC(=O)N(O)CCCCCN [Deferoxamine] (top concentration 10000 nM)
selective drug sensitivity score (MOLT-4): 3.56
selective drug sensitivity score (ALL-SIL): 3.56
selective drug sensitivity score (SEM cells): 2.66
selective drug sensitivity score (RCH-ACV): 3.86
selective drug sensitivity score (NALL-1): -0.74
selective drug sensitivity score (DND-41): 5.16
selective drug sensitivity score (KASUMI-2): -0.74
selective drug sensitivity score (PF-382): 4.66
selective drug sensitivity score (COG-LL-402h): 5.76
selective drug sensitivity score (KARPAS-45): 5.16
selective drug sensitivity score (MHH-CALL-2): 7.66
selective drug sensitivity score (CCRF-HSB2): 4.86
selective drug sensitivity score (JURKAT): 2.26
selective drug sensitivity score (RPMI-8402): 2.06
selective drug sensitivity score (P30-OHKUBO): 0.76
selective drug sensitivity score (HPB-ALL): 4.06
selective drug sensitivity score (KASUMI-10): 3.06
selective drug sensitivity score (MN-60): 5.16
selective drug sensitivity score (SUP-B15): 4.76
selective drug sensitivity score (LC4-1): 1.76

Cc1cc(Nc2cc(N3CCN(C)CC3)nc(/C=C/c3ccccc3)n2)n[nH]1 [ENMD-2076] (top concentration 10000 nM)
selective drug sensitivity score (MOLT-4): 5.74
selective drug sensitivity score (ALL-SIL): 8.94
selective drug sensitivity score (SEM cells): 15
selective drug sensitivity score (RCH-ACV): 8.84
selective drug sensitivity score (NALL-1): 5.84
selective drug sensitivity score (DND-41): -0.46
selective drug sensitivity score (KASUMI-2): -4.76
selective drug sensitivity score (PF-382): 1.34
selective drug sensitivity score (COG-LL-402h): 4.24
selective drug sensitivity score (KARPAS-45): 5.14
selective drug sensitivity score (MHH-CALL-2): 5.44
selective drug sensitivity score (CCRF-HSB2): 9.74
selective drug sensitivity score (JURKAT): 3.64
selective drug sensitivity score (RPMI-8402): 1.44
selective drug sensitivity score (P30-OHKUBO): 8.94
selective drug sensitivity score (HPB-ALL): 4.44
selective drug sensitivity score (KASUMI-10): 9.14
selective drug sensitivity score (MN-60): -1.46
selective drug sensitivity score (SUP-B15): 4.74
selective drug sensitivity score (LC4-1): 7.64

Cc1cnc(Nc2ccc(OCCN3CCCC3)cc2)nc1Nc1cccc(S(=O)(=O)NC(C)(C)C)c1 [Fedratinib] (top concentration 10000 nM)
selective drug sensitivity score (MOLT-4): -2.86
selective drug sensitivity score (ALL-SIL): 0.84
selective drug sensitivity score (SEM cells): 2.74
selective drug sensitivity score (RCH-ACV): -1.06
selective drug sensitivity score (NALL-1): -1.56
selective drug sensitivity score (DND-41): 3.94
selective drug sensitivity score (KASUMI-2): -6.16
selective drug sensitivity score (PF-382): -3.06
selective drug sensitivity score (COG-LL-402h): 1.24
selective drug sensitivity score (KARPAS-45): 0.04
selective drug sensitivity score (MHH-CALL-2): -0.26
selective drug sensitivity score (CCRF-HSB2): 0.54
selective drug sensitivity score (JURKAT): -2.06
selective drug sensitivity score (RPMI-8402): -2.16
selective drug sensitivity score (P30-OHKUBO): -2.16
selective drug sensitivity score (HPB-ALL): 0.14
selective drug sensitivity score (KASUMI-10): 4.94
selective drug sensitivity score (MN-60): -4.06
selective drug sensitivity score (SUP-B15): -0.66
selective drug sensitivity score (LC4-1): -0.36

COc1ccc(-c2nc(N3CCOCC3)c3sc(CN(C)c4ncc(C(=O)NO)cn4)cc3n2)cn1 [Fimepinostat (CUDC-907)] (top concentration 10000 nM)
selective drug sensitivity score (MOLT-4): 5.28
selective drug sensitivity score (ALL-SIL): 8.98
selective drug sensitivity score (SEM cells): 8.68
selective drug sensitivity score (RCH-ACV): 10.9
selective drug sensitivity score (NALL-1): -3.42
selective drug sensitivity score (DND-41): 4.68
selective drug sensitivity score (KASUMI-2): 8.88
selective drug sensitivity score (PF-382): 2.58
selective drug sensitivity score (COG-LL-402h): 10.9
selective drug sensitivity score (KARPAS-45): 9.58
selective drug sensitivity score (MHH-CALL-2): 10.3
selective drug sensitivity score (CCRF-HSB2): 1.68
selective drug sensitivity score (JURKAT): 0.98
selective drug sensitivity score (RPMI-8402): 5.28
selective drug sensitivity score (P30-OHKUBO): 8.68
selective drug sensitivity score (HPB-ALL): -4.02
selective drug sensitivity score (KASUMI-10): 9.18
selective drug sensitivity score (MN-60): -1.22
selective drug sensitivity score (SUP-B15): 10.7
selective drug sensitivity score (LC4-1): 8.68
